Active and inactive are the calls of the source. The calls are words filed in the database; no cut-off is given here.
Experiments:
SK-N-SH [1] = assay: Induction of mitochondrial dysfunction in human SK-N-SH cells assessed as increase in intracellular green fluorescence intensity at 3 to 9 uM; type: functional, cell-based; conditions: dose 3-9 µM
SK-N-SH [2] = assay: Induction of mitochondrial dysfunction in human SK-N-SH cells assessed as increase in intracellular green fluorescence intensity at 6 uM; type: functional, cell-based; conditions: time 2-48 hrs
[3] = Antiproliferative activity against human Neuroblastoma cell assessed as inhibition of cell growth incubated for 60 hrs by CCK-8 method; type: functional, cell-based
[4] = Antiproliferative activity against human Embryonic lung cell assessed as inhibition of cell growth incubated for 60 hrs by CCK-8 method; type: toxicity, cell-based
SK-N-SH [5] = assay: Inhibition of colony formation in human SK-N-SH cells assessed as reduction in colony size at 0.5 to 2 uM preincubated for 24 hrs followed by incubation under compound free medium for 8 days by crystal violet staining based analysis; type: functional, cell-based; conditions: dose 0.5-2 µM
SK-N-SH [6] = assay: Antiproliferative activity against human SK-N-SH cells assessed as reduction in cell proliferation at 0.5 uM incubated for 60 hrs by CCK-8 method relative to control; type: functional; set-up: scale not given: the % may be the effect or the level left
SK-N-SH [7] = assay: Antiproliferative activity against human SK-N-SH cells assessed as reduction in cell proliferation at 1 uM incubated for 60 hrs by CCK-8 method relative to control; type: functional; set-up: scale not given: the % may be the effect or the level left
SK-N-SH [8] = assay: Antiproliferative activity against human SK-N-SH cells assessed as reduction in cell proliferation at 2 uM incubated for 60 hrs by CCK-8 method relative to control; type: functional; set-up: scale not given: the % may be the effect or the level left
SK-N-SH [9] = assay: Antiproliferative activity against human SK-N-SH cells assessed as reduction in cell proliferation incubated for 60 hrs by CCK-8 method; type: functional, cell-based; conditions: dose 0.5-2 µM
SK-N-SH [10] = assay: Inhibition of cell migration in human SK-N-SH cells at 0.5 to 2 uM measured after 48 hrs by crystal violet staining based microscopic analysis; type: functional; conditions: dose 0.5-2 µM
SK-N-SH [11] = assay: Inhibition of cell invasion in human SK-N-SH cells at 0.5 to 2 uM measured after 48 hrs by crystal violet staining based microscopic analysis; type: functional; conditions: dose 0.5-2 µM
SK-N-SH [12] = assay: Inhibition of cell migration in human SK-N-SH cells at 2 uM measured after 48 hrs by crystal violet staining based microscopic analysis relative to control; type: functional
SK-N-SH [13] = assay: Inhibition of cell invasion in human SK-N-SH cells at 2 uM measured after 48 hrs by crystal violet staining based microscopic analysis relative to control; type: functional
[14] = Downregulation of N-cadherin expression in human SK-N-SH cells at 6 uM measured after 48 hrs by Western blot analysis relative to control; type: functional
[15] = Downregulation of Beta-catenin expression in human SK-N-SH cells at 6 uM measured after 48 hrs by Western blot analysis relative to control; type: functional
[16] = Downregulation of Beta-catenin expression in human SK-N-SH cells at 9 uM measured after 48 hrs by Western blot analysis relative to control; type: functional
[17] = Downregulation of vimentin expression in human SK-N-SH cells at 3 to 9 uM measured after 48 hrs by Western blot analysis relative to control; type: functional; conditions: dose 3-9 µM
[18] = (§1) Upregulation of E-cadherin expression in human SK-N-SH cells measured after 48 hrs by Western blot analysis relative to control; type: functional; conditions: dose 3-9 µM, at 3 to 9 µM
SK-N-SH [19] = assay: as §1; type: functional; conditions: dose 3-9 µM
SK-N-SH [20] = assay: Induction of apoptosis in human SK-N-SH cells assessed as increase in apoptotic cells measured after 48 hrs by FITC and PI staining based flow cytometry analysis; type: functional, cell-based; conditions: dose 3-9 µM
SK-N-SH [21] = assay: Induction of apoptosis in human SK-N-SH cells assessed as increase in apoptotic cells at 3 to 9 uM measured after 48 hrs by FITC and PI staining based flow cytometry analysis relative to control; type: functional; conditions: dose 3-9 µM
SK-N-SH [22] = assay: Downregulation of Bcl-2 expression in human SK-N-SH cells at 3 to 9 uM measured after 48 hrs by Western blot analysis; type: functional, cell-based; conditions: dose 3-9 µM
SK-N-SH [23] = assay: Upregulation of Bax expression in human SK-N-SH cells at 3 to 9 uM measured after 48 hrs by Western blot analysis; type: functional, cell-based; conditions: dose 3-9 µM
SK-N-SH [24] = assay: Upregulation of Bax/[…] ratio in human SK-N-SH cells at 3 to 9 uM measured after 48 hrs by Western blot analysis; type: functional, cell-based; conditions: dose 3-9 µM
SK-N-SH [25] = assay: Downregulation of caspase-3 expression in human SK-N-SH cells at 3 to 9 uM measured after 48 hrs by Western blot analysis; type: functional, cell-based; conditions: dose 3-9 µM
SK-N-SH [26] = assay: Downregulation of caspase-9 expression in human SK-N-SH cells at 3 to 9 uM measured after 48 hrs by Western blot analysis; type: functional, cell-based; conditions: dose 3-9 µM
SK-N-SH [27] = assay: Upregulation of cytochrome C level in human SK-N-SH cells at 6 uM measured after 48 hrs by immunofluorescence staining based microscopic analysis; type: functional, cell-based
SK-N-SH [28] = assay: Upregulation of AIF level in human SK-N-SH cells at 6 uM measured after 48 hrs by immunofluorescence staining based microscopic analysis; type: functional, cell-based
Quadruplex DNA [29] = assay: Binding affinity to HRCC G4 DNA (mitochondrial DNA) (unknown origin) assessed as dissociation constant by SPR analysis; type: nucleic-acid assay
Quadruplex DNA [30] = assay: Binding affinity to BCL-2 G4 DNA (unknown origin) assessed as dissociation constant by SPR analysis; type: nucleic-acid assay
N2a = assay: Antitumor activity against mouse N2a cells implanted in female ICR mouse model assessed as suppression of tumor cell proliferation administered as ip dose measured upto 8 days by Ki67 staining based analysis; type: functional, organism-based; conditions: dose 10-20 mg/kg, time <= 8.0 day

- Kd (Quadruplex DNA [29]): 14.2 nM
- Kd (Quadruplex DNA [30]): 78.5 nM
SMILES: N#C[Se]CCCOc1ccc2cc(C(=O)N3N=C(c4ccc(F)cc4)CC3c3ccc(F)cc3)c(=O)oc2c1 (stereo unspecified)
- Activity (SK-N-SH [1]): Active
- Activity (SK-N-SH [2]): Time-dependent-effect
- IC50 [3]: 2500 nM
- Activity [4]: Non-toxic
- inhibition (SK-N-SH [5]): Active
- Activity (SK-N-SH [6]): 24.1%
- Activity (SK-N-SH [7]): 63.8%
- Activity (SK-N-SH [8]): 81.4%
- Activity (SK-N-SH [9]): Dose-dependent-effect
- inhibition (SK-N-SH [10]): Active
- inhibition (SK-N-SH [11]): Active
- inhibition at 2 µM (SK-N-SH [12]): 83.2%
- inhibition at 2 µM (SK-N-SH [13]): 78.4%
- Activity [14]: 63.1%
- Activity [15]: 70.8%
- Activity [16]: 42.2%
- Activity [17]: 33.1%
- Activity [18]: 32.3%
- Activity (SK-N-SH [19]): Dose-dependent-effect
- Activity (SK-N-SH [20]): Dose-dependent-effect
- Activity (SK-N-SH [21]): 47.4%
- Activity (SK-N-SH [22]): Active
- Activity (SK-N-SH [23]): Active
- Activity (SK-N-SH [24]): Active
- Activity (SK-N-SH [25]): Active
- Activity (SK-N-SH [26]): Active
- Activity (SK-N-SH [27]): Active
- Activity (SK-N-SH [28]): Active
- Activity (N2a): Dose-dependent-effect
